Results as given in paper PMC11183015, “In vivo stable ^211At-labeled prostate-specific membrane antigen-targeted tracer using a neopentyl glycol structure” (EJNMMI Radiopharmacy and Chemistry, 2024).
Marks after values point to notes of the source that are not given here.

Key:
Assay type in all cases: in vivo, mouse
PSMA = PSMA (Homo sapiens, UniProt Q04609); assay: Blocking study with 2-PMPA in tumor-bearing mice; parameters: Tumor accumulation of [^125I]I-NpG-D-PSMA with or without 2-PMPA; from tissue; host or cells: LNCaP xenograft tumor in male BALB/c-nu/nu mice; details: LNCaP tumor-bearing mice, 2-PMPA 50 mg/kg coinjected, 1 h
Sequence of PSMA (Q04609 whole entry): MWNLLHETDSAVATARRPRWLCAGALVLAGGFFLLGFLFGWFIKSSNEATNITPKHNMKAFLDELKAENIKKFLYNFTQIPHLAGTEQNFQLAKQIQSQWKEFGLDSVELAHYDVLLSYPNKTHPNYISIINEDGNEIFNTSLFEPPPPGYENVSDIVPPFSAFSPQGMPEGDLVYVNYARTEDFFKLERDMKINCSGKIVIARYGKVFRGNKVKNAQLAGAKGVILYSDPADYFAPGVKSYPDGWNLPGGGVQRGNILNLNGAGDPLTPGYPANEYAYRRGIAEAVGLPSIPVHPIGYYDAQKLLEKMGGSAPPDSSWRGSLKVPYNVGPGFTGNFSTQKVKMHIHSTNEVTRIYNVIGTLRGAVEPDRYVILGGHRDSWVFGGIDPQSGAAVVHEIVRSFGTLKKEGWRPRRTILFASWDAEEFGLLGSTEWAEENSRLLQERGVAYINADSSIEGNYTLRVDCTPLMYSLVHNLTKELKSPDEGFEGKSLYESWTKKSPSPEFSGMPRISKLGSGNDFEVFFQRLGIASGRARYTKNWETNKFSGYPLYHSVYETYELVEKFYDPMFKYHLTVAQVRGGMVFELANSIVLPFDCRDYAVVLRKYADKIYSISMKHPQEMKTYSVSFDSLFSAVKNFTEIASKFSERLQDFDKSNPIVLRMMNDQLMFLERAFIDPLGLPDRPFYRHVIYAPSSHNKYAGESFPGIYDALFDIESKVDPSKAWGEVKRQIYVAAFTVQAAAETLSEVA
Method: (§1) Biodistribution studies were conducted using male BALB/c-nu/nu mice bearing LNCaP cell xenografts at 1 and 3 h postinjection of [^211At]At-NpG-D-PSMA (100 µL, 37 kBq) and 1 and 6 h postinjection of ^125I-labeled PSMA derivative (100 µL, 11.1 kBq). In the blocking study, [^125I]I-NpG-D-PSMA was coinjected with 2-PMPA (50 mg/kg weight) into tumor-bearing mice via the tail vein. At 1 h postinjection, the mice were sacrificed. The tissues of interest were excised and weighed, and the radioactivity counts in each tissue were determined using an auto-well gamma counter. Each value was expressed as the mean percent injected dose/g tissue ± SD for a group of 3–5 animals, except those for the stomach, intestine, and thyroid.

[1] = Biodistribution of radioactivity in normal mice
Method: Six-week-old male ddY mice were injected via the tail vein with each radiolabeled PSMA derivative. Animals were sacrificed and the organs were dissected at 10 min, 1 h, 3 h, and 6 h after injection. Metabolic cages were used for housing normal mice. The tissues of interest were excised and weighed, and the radioactivity counts in each tissue were determined using an auto-well gamma counter. Each value was expressed as the mean percent injected dose/g tissue ± SD for a group of 3–5 animals, except those for the stomach, intestine, and thyroid.

[2] = Analysis of radiometabolites in urine by RP-HPLC; details: normal ddY mice, urine up to 6 h after injection
Method: Urine samples were collected from 6-week-old ddY mice 6 h after injection of each ^125I-labeled PSMA derivative (100 µL, 370 kBq). After ethanol precipitation of proteins, the urine samples were filtered through a polycarbonate membrane (0.45 µm) and analyzed by RP-HPLC (System 2).

LNCaP cell xenografts = assay: Biodistribution of radioactivity in tumor-bearing mice; details: for Radioactivity in Intestine / Radioactivity in Neck / Radioactivity in Stomach: LNCaP tumor-bearing BALB/c-nu/nu mice; for Radioactivity in Blood / Radioactivity in Bone / Radioactivity in Heart / Radioactivity in Kidney / Radioactivity in Liver / Radioactivity in Lung / Radioactivity in Muscle / Radioactivity in Pancreas / Radioactivity in Spleen / Radioactivity in Tumor: male, BALB/c-nu/nu, mouse, in vivo
Method: Animal studies were conducted in accordance with the institutional guidelines approved by the Chiba University Animal Care Committee (Permit No. 4–183). Five-week-old male ddY mice and BALB/c-nu/nu mice were purchased from Japan SLC Inc. (Hamamatsu, Japan). LNCaP cells (5.0 × 10^6 cells) were suspended in 100 μL of PBS and Matrigel (BD Biosciences, Franklin Lakes, NJ, USA) in a 1:1 ratio. Tumor xenograft models were prepared via subcutaneous injection of this LNCaP cell suspension into BALB/c nude mice.
as §1

[3] = normal ddY mice, i.v., 6 h, metabolic cages

For `O=C(O)CCC(NC(=O)NC(CCCCNC(=O)C(Cc1ccc2ccccc2c1)NC(=O)C(CCC(=O)O)NC(=O)C(CCC(=O)O)NC(=O)COCC(CO)(CO)C[125I])C(=O)O)C(=O)O` [[^125I]I-NpG-D-PSMA], the “Accumulation in the tumor and spleen with coinjected 2-PMPA” value (PSMA) was “inhibited by 2-PMPA”, the “Radioactivity in Blood” value ([1]; normal ddY mice, i.v., 10 min) was 1.31 ± 0.10^c %ID/g and the “Radioactivity in Bone” value ([1]; normal ddY mice, i.v., 10 min) was 0.71 ± 0.07^c %ID/g. The “Radioactivity in Heart” value ([1]; normal ddY mice, i.v., 10 min) was 0.76 ± 0.08^c %ID/g, the “Radioactivity in Intestine” value ([1]; normal ddY mice, i.v., 10 min) was 2.76 ± 0.02^c %ID and the “Radioactivity in Kidney” value ([1]; normal ddY mice, i.v., 10 min) was 58.5 ± 2.27^c %ID/g. The “Radioactivity in Liver” value ([1]; normal ddY mice, i.v., 10 min) was 0.83 ± 0.12^c %ID/g, the “Radioactivity in Lung” value ([1]; normal ddY mice, i.v., 10 min) was 2.11 ± 0.16^c %ID/g and the “Radioactivity in Muscle” value ([1]; normal ddY mice, i.v., 10 min) was 0.47 ± 0.07^c %ID/g. The “Radioactivity in Neck” value ([1]; normal ddY mice, i.v., 10 min) was 0.48 ± 0.06^c %ID, the “Radioactivity in Pancreas” value ([1]; normal ddY mice, i.v., 10 min) was 0.63 ± 0.15^c %ID/g and the “Radioactivity in Spleen” value ([1]; normal ddY mice, i.v., 10 min) was 2.09 ± 0.83 %ID/g. For the same molecule, the “Radioactivity in Stomach” value ([1]; normal ddY mice, i.v., 10 min) was 0.28 ± 0.06 %ID, the “Radioactivity in Blood” value ([1]; normal ddY mice, i.v., 1 h) was 0.18 ±0.02 %ID/g and the “Radioactivity in Bone” value ([1]; normal ddY mice, i.v., 1 h) was 0.30 ± 0.25 %ID/g. The “Radioactivity in Heart” value ([1]; normal ddY mice, i.v., 1 h) was 0.14 ± 0.7 %ID/g, the “Radioactivity in Intestine” value ([1]; normal ddY mice, i.v., 1 h) was 2.97 ± 0.24^c %ID and the “Radioactivity in Kidney” value ([1]; normal ddY mice, i.v., 1 h) was 74.6 ± 14.9^c %ID/g. The “Radioactivity in Liver” value ([1]; normal ddY mice, i.v., 1 h) was 0.17 ± 0.07 %ID/g, the “Radioactivity in Lung” value ([1]; normal ddY mice, i.v., 1 h) was 0.38 ± 0.06 %ID/g and the “Radioactivity in Muscle” value ([1]; normal ddY mice, i.v., 1 h) was 0.11 ± 0.08 %ID/g. The “Radioactivity in Neck” value ([1]; normal ddY mice, i.v., 1 h) was 0.11 ± 0.03^c %ID, the “Radioactivity in Spleen” value ([1]; normal ddY mice, i.v., 1 h) was 0.20 ± 0.01 %ID/g and the “Radioactivity in Stomach” value ([1]; normal ddY mice, i.v., 1 h) was 0.18 ± 0.00 %ID. The “Radioactivity in Blood” value ([1]; normal ddY mice, i.v., 3 h) was 0.04 ± 0.02 %ID/g, the “Radioactivity in Bone” value ([1]; normal ddY mice, i.v., 3 h) was 0.21 ± 0.28 %ID/g and the “Radioactivity in Heart” value ([1]; normal ddY mice, i.v., 3 h) was 0.05 ± 0.04 %ID/g. For the same molecule, the “Radioactivity in Intestine” value ([1]; normal ddY mice, i.v., 3 h) was 3.30 ± 0.08^c %ID, the “Radioactivity in Kidney” value ([1]; normal ddY mice, i.v., 3 h) was 22.9 ± 16.5 %ID/g and the “Radioactivity in Liver” value ([1]; normal ddY mice, i.v., 3 h) was 0.05 ± 0.03 %ID/g. For the same molecule, the “Radioactivity in Lung” value ([1]; normal ddY mice, i.v., 3 h) was 0.12 ± 0.05 %ID/g, the “Radioactivity in Muscle” value ([1]; normal ddY mice, i.v., 3 h) was 0.05 ± 0.03 %ID/g and the “Radioactivity in Neck” value ([1]; normal ddY mice, i.v., 3 h) was 0.03 ± 0.02^c %ID. The “Radioactivity in Pancreas” value ([1]; normal ddY mice, i.v., 3 h) was 0.20 ± 0.31 %ID/g, the “Radioactivity in Spleen” value ([1]; normal ddY mice, i.v., 3 h) was 0.07 ± 0.05 %ID/g and the “Radioactivity in Stomach” value ([1]; normal ddY mice, i.v., 3 h) was 0.27 ± 0.10^c %ID. The “Radioactivity in Blood” value ([1]; normal ddY mice, i.v., 6 h) was 0.03 ± 0.01 %ID/g, the “Radioactivity in Bone” value ([1]; normal ddY mice, i.v., 6 h) was 0.16 ± 0.17 %ID/g and the “Radioactivity in Heart” value ([1]; normal ddY mice, i.v., 6 h) was 0.03 ± 0.01 %ID/g. The “Radioactivity in Intestine” value ([1]; normal ddY mice, i.v., 6 h) was 6.19 ± 4.27 %ID, the “Radioactivity in Kidney” value ([1]; normal ddY mice, i.v., 6 h) was 17.5 ± 5.43^c %ID/g and the “Radioactivity in Liver” value ([1]; normal ddY mice, i.v., 6 h) was 0.05 ±0.03 %ID/g. The “Radioactivity in Lung” value ([1]; normal ddY mice, i.v., 6 h) was 0.08 ± 0.00^c %ID/g, the “Radioactivity in Muscle” value ([1]; normal ddY mice, i.v., 6 h) was 0.06 ± 0.07 %ID/g and the “Radioactivity in Neck” value ([1]; normal ddY mice, i.v., 6 h) was 0.07 ± 0.09 %ID. For the same molecule, the “Radioactivity in Pancreas” value ([1]; normal ddY mice, i.v., 6 h) was 0.09 ± 0.12 %ID/g, the “Radioactivity in Spleen” value ([1]; normal ddY mice, i.v., 6 h) was 0.05 ± 0.05 %ID/g and the “Radioactivity in Stomach” value ([1]; normal ddY mice, i.v., 6 h) was 0.86 ± 0.65 %ID. For the same molecule, the “Radioactivity in Feces” value [1, 3] was 0.66 ± 0.50 %ID, the “Radioactivity in Urine” value [1, 3] was 30.7 ± 2.85^c %ID and the “Accumulation in the stomach and thyroid (stability against deiodination)” value ([1]; normal mice) was “low accumulation”. The “Form of radioactivity excreted in urine” value [2] was “only intact [^125I]I-NpG-D-PSMA”, the “Radioactivity in Intestine” value (LNCaP cell xenografts; 1 h) was 1.66 ± 0.29 %ID and the “Radioactivity in Neck” value (LNCaP cell xenografts; 1 h) was 0.77 ± 0.17 %ID. For the same molecule, the “Radioactivity in Stomach” value (LNCaP cell xenografts; 1 h) was 0.19 ± 0.04 %ID, the “Radioactivity in Intestine” value (LNCaP cell xenografts; 6 h) was 1.51 ± 0.61 %ID and the “Radioactivity in Neck” value (LNCaP cell xenografts; 6 h) was 0.10 ± 0.01 %ID. The “Radioactivity in Stomach” value (LNCaP cell xenografts; 6 h) was 0.17 ± 0.10 %ID, the “Radioactivity in Blood” value (LNCaP cell xenografts; 1 h) was 0.64 ± 0.04 %ID/g and the “Radioactivity in Bone” value (LNCaP cell xenografts; 1 h) was 0.25 ± 0.02 %ID/g. The “Radioactivity in Heart” value (LNCaP cell xenografts; 1 h) was 0.89 ± 0.09 %ID/g, the “Radioactivity in Kidney” value (LNCaP cell xenografts; 1 h) was 275 ± 17.6 %ID/g and the “Radioactivity in Liver” value (LNCaP cell xenografts; 1 h) was 0.79 ± 0.06 %ID/g. The “Radioactivity in Lung” value (LNCaP cell xenografts; 1 h) was 2.80 ± 0.09 %ID/g, the “Radioactivity in Muscle” value (LNCaP cell xenografts; 1 h) was 0.27 ± 0.05 %ID/g and the “Radioactivity in Pancreas” value (LNCaP cell xenografts; 1 h) was 0.84 ± 0.25 %ID/g. The “Radioactivity in Spleen” value (LNCaP cell xenografts; 1 h) was 30.5 ± 7.49 %ID/g, the “Radioactivity in Tumor” value (LNCaP cell xenografts; 1 h) was 20.4 ± 6.92 %ID/g and the “Radioactivity in Blood” value (LNCaP cell xenografts; 6 h) was 0.06 ± 0.03 %ID/g. For the same molecule, the “Radioactivity in Bone” value (LNCaP cell xenografts; 6 h) was 0.07 ± 0.02 %ID/g, the “Radioactivity in Heart” value (LNCaP cell xenografts; 6 h) was 0.10 ± 0.04 %ID/g and the “Radioactivity in Kidney” value (LNCaP cell xenografts; 6 h) was 160 ± 89.9 %ID/g. For the same molecule, the “Radioactivity in Liver” value (LNCaP cell xenografts; 6 h) was 0.07 ± 0.03 %ID/g, the “Radioactivity in Lung” value (LNCaP cell xenografts; 6 h) was 0.22 ± 0.09 %ID/g and the “Radioactivity in Muscle” value (LNCaP cell xenografts; 6 h) was 0.07 ± 0.04 %ID/g. For the same molecule, the “Radioactivity in Pancreas” value (LNCaP cell xenografts; 6 h) was 0.12 ± 0.05 %ID/g, the “Radioactivity in Spleen” value (LNCaP cell xenografts; 6 h) was 1.55 ± 0.75 %ID/g and the “Radioactivity in Tumor” value (LNCaP cell xenografts; 6 h) was 20.8 ± 6.84 %ID/g.
